Measurements from the supplement of paper PMC7214452.
Where a name gives a salt, the structure may show the parent alone.

How the values were obtained:
Test in all cases: normalized area under the dose-response curve (viability relative to DMSO control) (fraction); higher = less sensitive (more viable cells)
Conditions in all cases: exposure time not given
[1] = system: OCI-MY5 (cancer type: MM)
Experimental: (§1)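 25 myeloma and 15 non-Hodgkin lymphoma cell lines were exposed to each of 76 drugs as 7-point log dilutions (0.01 nM–10 µM) in duplicate. Viability was read with CellTiter-Glo and normalised to DMSO (0.1%) and staurosporine (10 µM) plate controls. Normalised AUC was calculated by the trapezoidal method relative to the negative control.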

[2] = system: NCI-H929 (cancer type: MM)
Experimental: as §1

SKMM2 (cancer type: MM) = system: SKMM2 (cancer type: MM)
Experimental: as §1

[3] = system: SU-DHL2 (cancer type: DLBCL)
Experimental: as §1

KMS11 (cancer type: MM) = system: KMS11 (cancer type: MM)
Experimental: as §1

[4] = system: RPMI 8226 (cancer type: MM)
Experimental: as §1

FR4 (cancer type: MM) = system: FR4 (cancer type: MM)
Experimental: as §1

[5] = system: KMS12PE (cancer type: MM)
Experimental: as §1

[6] = system: SU-DHL6 (cancer type: DLBCL)
Experimental: as §1

L363 (cancer type: MM) = system: L363 (cancer type: MM)
Experimental: as §1

[7] = system: KMS28BM (cancer type: MM)
Experimental: as §1

[8] = system: OCI-LY3 (cancer type: DLBCL)
Experimental: as §1

[9] = system: SR-786 (cancer type: TCL)
Experimental: as §1

[10] = system: KMS28PE (cancer type: MM)
Experimental: as §1

KMS26 (cancer type: MM) = system: KMS26 (cancer type: MM)
Experimental: as §1

XG2 (cancer type: MM) = system: XG2 (cancer type: MM)
Experimental: as §1

[11] = system: OCI-LY1 (cancer type: DLBCL)
Experimental: as §1

Se-Ax (cancer type: TCL) = system: Se-Ax (cancer type: TCL)
Experimental: as §1

MM1.S (cancer type: MM) = system: MM1.S (cancer type: MM)
Experimental: as §1

OPM2 (cancer type: MM) = system: OPM2 (cancer type: MM)
Experimental: as §1

KMS18 (cancer type: MM) = system: KMS18 (cancer type: MM)
Experimental: as §1

KMS34 (cancer type: MM) = system: KMS34 (cancer type: MM)
Experimental: as §1

MM1.R (cancer type: MM) = system: MM1.R (cancer type: MM)
Experimental: as §1

[12] = system: Karpas-299 (cancer type: TCL)
Experimental: as §1

My-La (cancer type: TCL) = system: My-La (cancer type: TCL)
Experimental: as §1

[13] = system: OCI-MY7 (cancer type: MM)
Experimental: as §1

[14] = system: JVM2 (cancer type: Mantle)
Experimental: as §1

EJM (cancer type: MM) = system: EJM (cancer type: MM)
Experimental: as §1

[15] = system: OCI-MY5/Vec (cancer type: MM)
Experimental: as §1

U266 (cancer type: MM) = system: U266 (cancer type: MM)
Experimental: as §1

[16] = system: Mino (cancer type: Mantle)
Experimental: as §1

AMO1 (cancer type: MM) = system: AMO1 (cancer type: MM)
Experimental: as §1

[17] = system: HuT 78 (cancer type: TCL)
Experimental: as §1

JJN3 (cancer type: MM) = system: JJN3 (cancer type: MM)
Experimental: as §1

[18] = system: JeKo-1 (cancer type: Mantle)
Experimental: as §1

[19] = system: OCI-MY5/CRBN (cancer type: MM)
Experimental: as §1

[20] = system: OCI-LY19 (cancer type: DLBCL)
Experimental: as §1

[21] = system: SU-DHL1 (cancer type: TCL)
Experimental: as §1

[22] = system: Granta-519 (cancer type: Mantle)
Experimental: as §1

LP1 (cancer type: MM) = system: LP1 (cancer type: MM)
Experimental: as §1

| Structure (SMILES) | normalized area under the dose-response curve [1] | normalized area under the dose-response curve [2] | normalized area under the dose-response curve (SKMM2 (cancer type: MM)) | normalized area under the dose-response curve [3] | normalized area under the dose-response curve (KMS11 (cancer type: MM)) | normalized area under the dose-response curve [4] | normalized area under the dose-response curve (FR4 (cancer type: MM)) | normalized area under the dose-response curve [5] | normalized area under the dose-response curve [6] | normalized area under the dose-response curve (L363 (cancer type: MM)) | normalized area under the dose-response curve [7] | normalized area under the dose-response curve [8] | normalized area under the dose-response curve [9] | normalized area under the dose-response curve [10] | normalized area under the dose-response curve (KMS26 (cancer type: MM)) | normalized area under the dose-response curve (XG2 (cancer type: MM)) | normalized area under the dose-response curve [11] | normalized area under the dose-response curve (Se-Ax (cancer type: TCL)) | normalized area under the dose-response curve (MM1.S (cancer type: MM)) | normalized area under the dose-response curve (OPM2 (cancer type: MM)) | normalized area under the dose-response curve (KMS18 (cancer type: MM)) | normalized area under the dose-response curve (KMS34 (cancer type: MM)) | normalized area under the dose-response curve (MM1.R (cancer type: MM)) | normalized area under the dose-response curve [12] | normalized area under the dose-response curve (My-La (cancer type: TCL)) | normalized area under the dose-response curve [13] | normalized area under the dose-response curve [14] | normalized area under the dose-response curve (EJM (cancer type: MM)) | normalized area under the dose-response curve [15] | normalized area under the dose-response curve (U266 (cancer type: MM)) | normalized area under the dose-response curve [16] | normalized area under the dose-response curve (AMO1 (cancer type: MM)) | normalized area under the dose-response curve [17] | normalized area under the dose-response curve (JJN3 (cancer type: MM)) | normalized area under the dose-response curve [18] | normalized area under the dose-response curve [19] | normalized area under the dose-response curve [20] | normalized area under the dose-response curve [21] | normalized area under the dose-response curve [22] | normalized area under the dose-response curve (LP1 (cancer type: MM)) |
| --- | --- | --- | --- | --- | --- | --- | --- | --- | --- | --- | --- | --- | --- | --- | --- | --- | --- | --- | --- | --- | --- | --- | --- | --- | --- | --- | --- | --- | --- | --- | --- | --- | --- | --- | --- | --- | --- | --- | --- | --- |
| O=C(/C=C/c1cccc(S(=O)(=O)Nc2ccccc2)c1)NO [Belinostat] | 0.201 | 0.1 | 0.712 | 0.4 | 0.445 | 0.564 | 0.428 | 0.4 | 0.582 | 0.473 | 0.416 | 0.343 | 0.215 | 0.384 | 0.366 | 0.473 | 0.223 | 0.215 | 0.21 | 0.674 | 0.553 | 0.274 | 0.36 | 0.0712 | 0.506 | 0.44 | 0.385 | 0.247 | 0.25 | 0.394 | 0.249 | 0.301 | 0.178 | 0.53 | 0.229 | 0.262 | 0.38 | 0.218 | 0.531 | 0.628 |
| Nc1cccc2c1C(=O)N(C1CCC(=O)NC1=O)C2=O (stereo not given) [Pomalidomide] | 0.9 | 0.78 | 0.973 | 0.917 | 0.912 | 0.959 | 0.949 | 0.9 | 0.989 | 0.887 | 0.925 | 0.979 | 0.947 | 0.962 | 0.86 | 0.77 | 0.964 | 0.767 | 0.74 | 0.963 | 0.886 | 0.917 | 0.76 | 0.914 | 0.875 | 0.9 | 0.889 | 0.879 | 0.897 | 0.96 | 0.884 | 0.879 | 0.986 | 0.994 | 0.843 | 0.908 | 0.854 | 0.846 | 0.87 | 0.871 |
| O=C(/C=C\n1cnc(-c2cc(C(F)(F)F)cc(C(F)(F)F)c2)n1)NNc1cnccn1 [Selinexor] | 0.151 | 0.25 | 0.598 | 0.697 | 0.126 | 0.424 | 0.703 | 0.47 | 0.789 | 0.153 | 0.62 | 0.643 | 0.306 | 0.41 | 0.42 | 0.256 | 0.634 | 0.483 | 0.18 | 0.411 | 0.446 | 0.313 | 0.23 | 0.553 | 0.469 | 0.13 | 0.407 | 0.389 | 0.0963 | 0.415 | 0.507 | 0.182 | 0.227 | 0.468 | 0.43 | 0.105 | 0.38 | 0.277 | 0.705 | 0.446 |
| O=C(c1ccc(F)c(F)c1Nc1ccc(I)cc1F)N1CC(O)([C@@H]2CCCCN2)C1 [Cobimetinib] | 0.587 | 0.6 | 0.813 | 0.873 | 0.722 | 0.736 | 0.696 | 0.75 | 0.83 | 0.556 | 0.731 | 0.9 | 0.808 | 0.608 | 0.766 | 0.501 | 0.996 | 0.538 | 0.69 | 0.629 | 0.588 | 0.494 | 0.65 | 0.842 | 0.857 | 0.68 | 0.724 | 0.54 | 0.843 | 0.767 | 0.887 | 0.392 | 0.807 | 0.742 | 0.878 | 0.822 | 0.923 | 0.383 | 0.888 | 0.634 |
| CO[C@H]1C[C@@H]2CC[C@@H](C)[C@@](O)(O2)C(=O)C(=O)N2CCCC[C@H]2C(=O)O[C@H]([C@H](C)C[C@@H]2CC[C@@H](OC(=O)C(C)(CO)CO)[C@H](OC)C2)CC(=O)[C@H](C)/C=C(\C)[C@@H](O)[C@@H](OC)C(=O)[C@H](C)C[C@H](C)/C=C/C=C/C=C/1C [Temsirolimus] | 0.775 | 0.74 | 0.912 | 0.576 | 0.752 | 0.763 | 0.789 | 0.69 | 0.72 | 0.7 | 0.859 | 0.648 | 0.745 | 0.696 | 0.978 | 0.725 | 0.685 | 0.663 | 0.63 | 0.749 | 0.754 | 0.559 | 0.68 | 0.585 | 0.764 | 0.79 | 0.559 | 0.823 | 0.884 | 0.752 | 0.691 | 0.695 | 0.722 | 0.774 | 0.744 | 0.772 | 0.697 | 0.71 | 0.695 | 0.746 |
| O=C(CCCCCCC(=O)Nc1ccccc1)NO [Vorinostat] | 0.4 | 0.35 | 0.781 | 0.528 | 0.627 | 0.721 | 0.521 | 0.63 | 0.672 | 0.635 | 0.56 | 0.469 | 0.533 | 0.542 | 0.551 | 0.692 | 0.432 | 0.331 | 0.46 | 0.767 | 0.855 | 0.554 | 0.55 | 0.426 | 0.672 | 0.51 | 0.598 | 0.607 | 0.427 | 0.738 | 0.449 | 0.482 | 0.43 | 0.649 | 0.421 | 0.517 | 0.443 | 0.519 | 0.717 | 0.637 |
| C#Cc1cccc(Nc2ncnc3cc(OCCOC)c(OCCOC)cc23)c1 [Erlotinib hydrochloride] | 0.796 | 0.88 | 0.922 | 0.839 | 0.85 | 0.903 | 0.877 | 0.8 | 0.905 | 0.814 | 0.847 | 0.897 | 0.962 | 0.871 | 0.928 | 0.888 | 0.888 | 0.84 | 0.86 | 0.86 | 0.84 | 0.805 | 0.84 | 0.907 | 0.972 | 0.84 | 0.665 | 0.91 | 0.861 | 0.946 | 0.95 | 0.897 | 0.756 | 0.878 | 0.886 | 0.878 | 0.864 | 0.87 | 0.938 | 0.869 |
| CCCS(=O)(=O)Nc1ccc(F)c(C(=O)c2c[nH]c3ncc(-c4ccc(Cl)cc4)cc23)c1F [Vemurafenib] | 0.788 | 0.79 | 0.994 | 0.972 | 0.909 | 0.975 | 0.825 | 0.91 | 0.92 | 0.898 | 1.28 | 0.951 | 0.98 | 0.998 | 0.965 | 1 | 0.933 | 0.673 | 0.95 | 0.936 | 0.938 | 0.765 | 0.97 | 0.969 | 0.976 | 0.94 | 0.924 | 0.902 | 0.998 | 0.8 | 0.917 | 0.808 | 0.964 | 0.784 | 0.971 | 0.958 | 0.912 | 0.867 | 0.957 | 0.89 |
